Source: ChEMBL document CHEMBL1157286, “Schisandrene, a dibenzocyclooctadiene lignan from Schisandra chinensis: structure-antioxidant activity relationships of dibenzocyclooctadiene lignans” (J Nat Prod, 2006)
The source made the active and inactive calls. No cut-off for these calls is given here.

Columns and labels:
Vero = test: Cytotoxicity against african green monkey Vero cells upto 48 uM; assay type: cell-based; details: chlorocebus sabaeus
LLC-PK1 = test: Cytotoxicity against pig LLC-PK1 cells upto 48 uM; assay type: cell-based, Sus scrofa
HL-60 [1] = test: Antioxidant activity in human HL60 cells assessed as inhibition of TPA-stimulated hydrogen peroxide induced DCFH-DA oxidation by fluorometric microplate assay; assay type: functional, cell-based
HL-60 [2] = test: Cytotoxicity against human HL60 cells by XTT assay; assay type: functional, cell-based

Compound | Activity (Vero) | Activity (LLC-PK1) | Activity (HL-60 [1]) | IC50 (HL-60 [2]) | IC50 (HL-60 [1]) | Activity (HL-60 [2])
C/C=C(/C)C(=O)O[C@H]1c2cc(OC)c(OC)c(OC)c2-c2c(cc3c(c2OC)OCO3)C[C@H](C)[C@]1(C)O [GOMISIN B] | Not Active | Not Active |  |  |  | 
COc1cc2c(c(OC)c1OC)-c1c(cc(OC)c(OC)c1OC(=O)c1ccccc1)CC(C)C(C)(O)C2 (centres undefined) [BENZOYLGOMISIN H] | Not Active | Not Active | inactive | 41.2 µM |  | 
COc1cc2c(c(O)c1OC)-c1c(cc(OC)c(OC)c1OC)CC(C)C(C)C2 (centres undefined) [GOMISIN K3] | Not Active | Not Active |  | 56.2 µM | > 155 µM | 
Cc1c(C)c2c(c(C)c1O)CCC(C)(C(=O)O)O2 (centres undefined) [TROLOX] |  |  |  |  | 3.6 µM | inactive
COc1cc2c(c(OC)c1OC)-c1c(cc3c(c1OC)OCO3)[C@H](OC(=O)c1ccccc1)[C@@](C)(O)[C@@H](C)C2 [GOMISIN G] | Not Active | Not Active |  | 48.3 µM | 38.2 µM | 
O=C1O[C@H]([C@@H](O)CO)C(O)=C1O [ASCORBIC ACID] |  |  |  |  | 10.2 µM | inactive
COc1cc2c(c(OC)c1OC)-c1c(cc3c(c1OC)OCO3)C[C@H](C)[C@](C)(O)C2 |  |  | inactive |  |  | inactive
C/C=C(/C)C(=O)Oc1c(OC)c(OC)cc2c1-c1c(cc(OC)c(OC)c1OC)CC(C)(O)C(C)C2 (centres undefined) [ANGELOYLGOMISIN] | Not Active | Not Active |  | 45.3 µM | 81.5 µM | 
COc1cc2c(c(OC)c1OC)-c1c(cc(OC)c(OC)c1OC)C[C@H](C)[C@H](C)C2 [SCHISANDRIN A] | Not Active | Not Active | inactive |  |  | inactive
COc1cc2c(c(OC)c1OC)-c1c(cc3c(c1OC)OCO3)C[C@H](C)[C@H](C)C2 [WUWEIZISU B] | Not Active | Not Active | inactive | 52.4 µM |  | 
C/C=C(\C)C(=O)Oc1c(OC)c(OC)cc2c1-c1c(cc(OC)c(OC)c1OC)C[C@](C)(O)[C@@H](C)C2 [TIGLOYLGOMISIN H] | Not Active | Not Active |  | 44.3 µM | > 125 µM | 
C=C1[C@H](C)Cc2cc3c(c(OC)c2-c2c(cc4c(c2OC)OCO4)[C@H]1OC(=O)c1ccccc1)OCO3 [SCHISANDRENE] | Not Active | Not Active |  | 55.8 µM | 2.8 µM | 
CC(Cc1ccc(O)c(O)c1)C(C)Cc1ccc(O)c(O)c1 (centres undefined) [NORDIHYDROGUAIARETIC ACID] |  |  |  | 12.2 µM | 2.3 µM | 
COc1cc2c(c(OC)c1OC)-c1c(cc(OC)c(OC)c1OC)C[C@](C)(O)[C@@H](C)C2 [SCHIZANDRIN] | Not Active | Not Active | inactive |  |  | inactive
COc1c2c(cc3c1-c1c(cc4c(c1OC)OCO4)C[C@H](C)[C@H](C)C3)OCO2 [SCHISANDRIN C] | Not Active | Not Active | inactive | 41.2 µM |  | 
COc1cc2c(c(OC)c1OC)-c1c(cc3c(c1OC)OCO3)C[C@H](C)[C@@](C)(O)C2 [GOMISIN A] | Not Active | Not Active |  |  |  | 
C/C=C(\C)C(=O)O[C@H]1c2cc(OC)c(OC)c(OC)c2-c2c(cc3c(c2OC)OCO3)C[C@H](C)[C@]1(C)O [GOMISIN B] |  |  |  |  | > 116 µM | inactive
